Key:
NZB/W F1 hybrid mice = assay: Murine lupus nephritis; type: in vivo; settings: for mortality / survival: up to the end of experiments at 32 weeks, Hybri 20 mg/kg ip days 0, 4, 14, 28, 56, 84, CYP 50 mg/kg ip every 10 days, versus PBS
Description: NZB/W F1 hybrid mice spontaneously develop a disease closely resembling human systemic lupus erythematous (SLE) with severe renal involvement, which is the main cause of animal mortality. In fact, this model, with a well-characterized evolution of renal disease, has been widely used to study the therapeutic potential of several new agents for SLE, as previously reported (Ripoll et al., “CD40 gene silencing reduces the progression of experimental lupus nephritis modulating local milieu and systemic mechanisms”, PLoS One, 2013, vol. 8(6)).
From 20 weeks of age, and close to a potential therapeutic schedule in humans, mice (n=9) received Hybri intraperitoneally (ip) at 20 mg/kg on days 0, 4, 14, 28, 56 and 84; or CYP (n=8) ip. at 50 mg/kg every 10 days; or 200 μl PBS ip. twice a week (n=8).

[1] = tested on: CD3+ T cell proliferation; assay: Mixed lymphocyte reaction (MLR) in vitro proliferation assay; type: cell-based, human; settings: for decrease of CD3+ cells proliferation: 6 days, as compared to spontaneous proliferation without immunosuppressive agents (MLR), two responder subjects
Description: Mixed Lymphocyte reactions (MLR) were performed in the presence or absence of different immunosuppressive drugs to test their inhibitory effect on T cell proliferation, following conventional methodology (Levitsky J, et al., “Allospecific regulatory effects of sirolimus and tacrolimus in the human mixed lymphocyte reaction”, Transplantation, 2011, vol. 91(2), pp. 199-206).
Briefly, peripheral blood mononuclear cells (PBMC) from healthy controls were used as responder cells. CD3^+-depleted splenocytes extracted from deceased donors and mature dendritic cells (DCs) were extracted with CD2 positive selection cocktail (Stem Cell Technologies, France) following manufacturer's instructions and they were used as stimulators in the assay. PBMC from peripheral blood samples and splenocytes were isolated by standard Ficoll density gradient centrifugation (Bargalló M E. et al., “Utility of Systematic Isolation of immune cell subsets from HIV-infected individuals for miRNA profiling”, J Immunol Methods, 2017, vol. 442, pp. 12-19). In order to obtain mature DCs, monocytes were isolated from PBMC by negative selection with Human monocyte enrichment kit (Stem Cell Technologies, France) following manufacturer's instructions, cultured for 6 days with complete Ex-vivo medium supplemented with 2% of human serum (Sigma Aldrich), GMSF (15 ng/ml; R&D) and IL-4 (10 ng/ml; Sigma Aldrich) (37° C. 5% CO2), and stimulated with LPS (1 μg/ml; Sigma Aldrich) for 24 h.
First, PBMC were stained with carboxyfluorescein succinimidyl ester (CFSE) (Lloberas N, et al., “Dendritic cells phenotype fitting under hypoxia or lipopolysaccharide; adenosine 5′-triphosphate-binding cassette transporters far beyond an efflux pump”, Clin Exp Immunol., 2013, vol. 172(3), pp. 444-54). […] At day 6, cells were harvested and stained for CD3-APC and CD4-PE (BD Bioscience, San Jose, Calif., USA) 20 minutes in the dark following manufacturer's instructions, and T-cell proliferation were analyzed by flow cytometry (BD FACS CANTO 11, San Jose, Calif., USA) using Facs Diva software and following manufacturer's instructions.
The in vitro proliferation assay was performed with high HLA-mismatch combination between 2 stimulator DCs and two corresponding responder subjects ([…], S2) T cells.

[2] = tested on: Lewis rats transplanted with a single kidney from a Wistar donor rat; assay: Rat renal allotransplantation (life-sustaining renal transplantation model); type: in vivo; settings: 500 μg intraperitoneally 2 hours before transplantation, then daily for 6 days, followed for 3 weeks, versus non-treated group, p<0.05
Description: A model of life-sustaining renal transplantation previously described (De Ramon et al., “CD154-CD40 T-cell co-stimulation pathway is a key mechanism in kidney ischemia-reperfusion injury”, Kidney Int., 2015, vol. 88(3), pp. 538-49) was used to test the therapeutic effects of the fusion protein. It is known that in experimental renal transplantation with highly alloreactive donor-recipient combination, severe acute rejection results in high recipients' mortality.
Briefly, Lewis rats were bi-nephrectomized and subsequently transplanted with a single kidney from a Wistar donor rat. […] In the control group, recipient Lewis rats received no treatment. Transplanted rats were followed for 3 weeks.

[3] = tested on: Wistar rats with 40 minutes of bilateral renal ischemia
Description: Rats were sham operated or suffered from renal warm ischemia and were treated with the fusion protein of the invention of sequence SEQ ID NO: 6 (Hybri) at 20 mg/kg ip. 24 hours before renal ischemia; and in the control ischemic group rats received PBS.

Compound | albuminuria (albuminuria/creatininuria ratio) (NZB/W F1 hybrid mice; at 3 months of therapy) | mortality / survival (NZB/W F1 hybrid mice) | inhibition of mature CD3+ T cell proliferation (in words) ([1]; 10 μg/mL and 20 μg/mL, compared with tacrolimus (10 nM), FIG. 5) | decrease of CD3+ cells proliferation ([1]; 10 μg/mL) | decrease of CD3+ cells proliferation ([1]; 20 μg/mL) | reduction in T cell proliferation (immunosuppressive effect, FIG. 5) ([1]; summary statement of FIG. 5) | survival [2] | survival ([2]; listed as fusion polypeptide) | anti-DNA antibodies in serum (NZB/W F1 hybrid mice; FIG. 8B) | albuminuria (albuminuria/creatininuria ratio) (NZB/W F1 hybrid mice; mouse, in vivo) | mortality / survival (NZB/W F1 hybrid mice; listed as fusion polypeptide) | preservation of renal structure ([3]; 20 mg/kg ip. 24 hours before renal ischemia) | renal function (serum creatinine levels) ([3]; 20 mg/kg ip. 24 hours before renal ischemia, 24 hours after warm ischemia, versus PBS, p=0.0038) | T cells with regulatory phenotype (Tregs) per high power field in renal parenchyma ([3]; compared to non-treated ischemic kidneys) | renal failure in sham operated rats ([3]; rat, in vivo)
O=P1(N(CCCl)CCCl)NCCCO1 (stereo not shown) [CYP, cyclophosphamide, reference compound] | reducing albuminuria | no mortality |  |  |  |  |  |  |  |  |  |  |  |  | 
Hybri: fusion protein of human PDL2 extracellular domain, (GGGGS)3 linker, human CTLA4 extracellular domain, Fc of human IgG, poly-histidine tag; SEQ ID NO: 6 |  | no mortality | strongly inhibit | 97%-99% | 94%-99% | nearly complete | significantly higher survival | strongly improved the survival | effectively reduced anti-DNA antibodies to similar levels than CYP | as efficient as CYP in reducing albuminuria | strongly improved the survival | better preservation of renal structure | significantly improved renal function | increased | did not develop renal failure
